{"source": "paper PMC10458596", "about": "“Synthesis, In Silico Logp Study, and In Vitro Analgesic Activity of Analogs of Tetrapeptide FELL” (Pharmaceuticals, 2023)", "key": {"[1]": {"tested_on": "white blood cells (WBC), especially neutrophils and macrophages, in bronchoalveolar fluid (BALF)", "parameters": "method as in PMID 25632019", "conditions": "cited from earlier work"}, "male Wistar rats [2]": {"tested_on": "male Wistar rats", "experiment": "Paw-pressure test (Randall-Selitto test), PPT", "assay_type": "in vivo, rat", "conditions": "for Analgesic activity (PPT) over time: 0.25 mg/kg i.p. in saline, measured every 10 min from 10th to 50th min, n = 8-10 per group, PPT in AU, mean ± S.E.M. (Figure 2)", "description": "(§1) The experiments were carried out on male Wistar rats (180–200 g) kept under normal conditions at ambient room temperature (22 °C). The animals were divided into five experimental groups, each including 8–10 animals, and a control group (n = 10). All experimental procedures were carried out between 10:00 a.m. and 1:00 p.m. after having been approved by the Research Ethics Commission of the Medical University—Sofia.\n(§2) The control group received 0.2 mL of saline intraperitoneally injected (i.p.), while the animals from each one of the experimental groups received 0.2 mL (0.25 mg/kg, i.p.) of one of the five newly synthesized analogs dissolved in saline.\n(§3) Changes in the mechanical nociceptive thresholds (PPT) of experimental animals were measured by an analgesimeter. Pressure was applied to the hind paw, and the value (g) required to elicit a nociceptive response (i.e., a squeak or struggle) was taken as the mechanical nociceptive threshold. A cut-off value of 500 g was used to prevent damage to the paw.\n(§4) Nociception was evaluated every 10 min from the 10th minute after the newly synthesized analog was administered until the 50th minute.\nThe results were statistically assessed by one-way analysis of variance followed by a Newman-Keuls post-hoc comparison test. Values are represented as mean ± S.E.M. Values of p < 0.05 were considered to indicate statistical significance."}, "male Wistar rats [3]": {"tested_on": "male Wistar rats", "experiment": "Paw-pressure test after Naloxone or AM251 pretreatment", "assay_type": "in vivo, rat", "conditions": "10th to 50th min (Figure 3); for Analgesia (PPT) after AM251 pretreatment: peptide i.p. after AM251 (CB1R antagonist) pretreatment; for Analgesia (PPT) after Naloxone pretreatment: peptide i.p. after Naloxone (MOR antagonist) pretreatment", "description": "as §1, §2, §3, §4\nIn order to estimate which type of receptor participates in the analgesic effects of the newly synthesized substances, pretreatments have been made with Naloxone—an antagonist with a high binding affinity for the MORs, clinically used to prevent fatal overdose consequences—and AM251—a CB1Rs’ antagonist."}}, "note": "Residues, ends and D or L forms follow the SMILES beside them.", "data": [{"molecule": "TDIFELL", "values": [{"measurement": "Reduction of total number of white blood cells and their accumulation in BALF in the lungs", "setting": "[1]", "value": 54, "unit": "%"}]}, {"molecule": "CCCC[C@H](NC(=O)[C@H](CCCC)NC(=O)[C@H](CCC(=O)O)NC(=O)[C@@H](N)Cc1ccccc1)C(N)=O", "note": "[BB2, H-Phe-Glu-Nle-Nle-NH2] (HELM PEPTIDE1{F.E.[Nle].[Nle].[am]}$$$$V2.0)", "values": [{"measurement": "Analgesic activity (PPT) over time", "setting": "male Wistar rats [2]", "value": "fluctuating analgesia that did not reach the values of the parent compound"}]}, {"molecule": "CC(C)C[C@H](NC(=O)[C@H](CC(C)C)NC(=O)[C@H](CCC(=O)O)NC(=O)[C@@H](N)Cc1ccccc1)C(=O)O", "note": "[BB11, H-Phe-Glu-Leu-Leu-OH, reference compound] (H-FELL-OH)", "values": [{"measurement": "Analgesic activity (PPT) over time", "setting": "male Wistar rats [2]", "value": "constantly increased PPT for the total time of the evaluation"}, {"measurement": "Analgesia (PPT) after AM251 pretreatment", "setting": "male Wistar rats [3]", "value": "completely abolished the analgesia"}, {"measurement": "Analgesia (PPT) after Naloxone pretreatment", "setting": "male Wistar rats [3]", "value": "completely abolished the analgesia"}, {"measurement": "Reduction of total number of white blood cells and their accumulation in BALF in the lungs", "setting": "[1]", "value": 51, "unit": "%"}]}, {"molecule": "CC(C)C[C@H](NC(=O)[C@H](CC(C)C)NC(=O)[C@H](CCC(=O)O)NC(=O)[C@@H](N)Cc1ccccc1)C(N)=O", "note": "[BB1, H-Phe-Glu-Leu-Leu-NH2] (H-FELL-NH2)", "values": [{"measurement": "Analgesic activity (PPT) over time", "setting": "male Wistar rats [2]", "value": "gradually increasing analgesic activity over time"}, {"measurement": "Analgesic activity (PPT) vs parent compound BB11 at the end of the reported period", "setting": "male Wistar rats [2]; 0.25 mg/kg i.p., 50th min, F = 5.38217, p = 0.042776", "value": "exceeded that of the parent compound BB11"}, {"measurement": "Analgesia (PPT) after AM251 pretreatment", "setting": "male Wistar rats [3]", "value": "completely abolished the analgesia"}, {"measurement": "Analgesia (PPT) after Naloxone pretreatment", "setting": "male Wistar rats [3]", "value": "completely abolished the analgesia"}]}, {"molecule": "TDIFELLK", "values": [{"measurement": "Reduction of total number of white blood cells and their accumulation in BALF in the lungs", "setting": "[1]", "value": 57, "unit": "%"}]}, {"molecule": "CC(C)[C@H](NC(=O)[C@@H](NC(=O)[C@H](CCC(=O)O)NC(=O)[C@@H](N)Cc1ccccc1)C(C)C)C(N)=O", "note": "[BB3, H-Phe-Glu-Val-Val-NH2] (H-FEVV-NH2)", "values": [{"measurement": "Analgesic activity (PPT) over time", "setting": "male Wistar rats [2]", "value": "highest but short-lasting analgesic activity"}, {"measurement": "Analgesic activity (PPT) vs BB11 at the 10th minute", "setting": "male Wistar rats [2]; 0.25 mg/kg i.p., 10th min, F = 92.35602, p < 0.00001", "value": "exceeded that of BB11"}]}, {"molecule": "H-Phe-Glu-Ile-Ile-NH2 [BB4, FELL analog with Ile at positions 3 and 4, C-terminal amide]", "values": [{"measurement": "Analgesic activity (PPT) over time", "setting": "male Wistar rats [2]", "value": "fluctuating analgesia that did not reach the values of the parent compound"}]}]}
